Test results from patent publication US5834463A, “Condensed heterocyclic compounds, their production and use” (Takeda Chemical Industries, Ltd., priority 1994, dated 1998).

What follows are molecules tested against T1, human GnRH receptor (Homo sapiens, UniProt P30968) (assay: Test for inhibition of ^125 I-leuprorelin binding to human GnRH receptor). Conditions: membrane fraction of CHO cells expressing human GnRH receptors, 25° C., 60 minutes, read-out: Binding Inhibitory Activity (IC50, μM) for human GnRH receptor.
T1 construct: expressed in transfected cells; host or cells: CHO (Chinese Hamster Ovary) cells, membrane fraction
T1 sequence (P30968 1-328): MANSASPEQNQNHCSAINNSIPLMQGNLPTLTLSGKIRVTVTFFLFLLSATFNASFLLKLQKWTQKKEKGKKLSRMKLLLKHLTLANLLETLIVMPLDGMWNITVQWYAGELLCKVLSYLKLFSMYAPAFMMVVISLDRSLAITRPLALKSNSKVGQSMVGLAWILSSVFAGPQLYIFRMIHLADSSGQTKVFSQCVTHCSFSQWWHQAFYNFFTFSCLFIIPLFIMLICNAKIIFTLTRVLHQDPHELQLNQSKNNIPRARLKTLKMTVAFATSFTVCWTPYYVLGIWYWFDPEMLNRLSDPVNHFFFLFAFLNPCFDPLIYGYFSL
Method: (A) Preparation of ^125 I-leuprorelin
Ten μl of a 3×10^-4 M aqueous solution of leuprorelin and 10μl of 0.01 mg/ml lactoperoxidase in 0.1M Hepes buffer (pH7.4) were put in a tube, to which was added 10 μl of an Na^125 I solution (37 MBq). The mixture was stirred, to which was added 10 μl of 0.001% H2 O2, followed by allowing the reaction to proceed for 20 minutes at room temperature. To the reaction mixture was added 700 μl of a 0.05% TFA solution to stop the reaction. The product of was purified by means of a reverse-phase HPLC. Conditions of HPLC were as follows:
(D) Preparation of membrane fraction of CHO (Chinese Hamster Ovary) cells containing human GnRH receptors
CHO cells (10^9) expressing human GnRH receptors were suspended in a phosphate-buffered saline supplemented with 5 mM EDTA. The suspension was subjected to centrifugal separation for 5 minutes at 100×g. To the pellet of cells was added 10 ml of a homogenate buffer for cells (10 mM NaHCO3, 5 mM EDTA, pH 7.5), which was homogenated by using a Polytron homogenizer. Centrifugal separation was conducted for 15 minutes at 400×g. The supernatant was taken into an ultracentrifugal tube, which was subjected to centrifuge for one hour at 100,000×g to give precipitate of the membrane fraction. The precipitate was suspended in 2 ml of the assay buffer, which was centrifuged for one hour at 100,000×g. The membrane fraction recovered as precipitate was again suspended in 20 ml of the assay buffer, which was distributed to vials and stored at -80° C. until used.
(E) Determination of inhibitory rate of ^125 I-leuprorelin binding
In the cases of using rat and human pituitary membrane fractions prepared in (B) and (D), they were respectively diluted with the assay buffer to 200 μg/ml and 188 μl each was distributed to tubes. In the case of using bovine pituitary membrane fraction prepared in (C), it was diluted with the assay buffer to 750 μg/ml and 188 μl each was distributed into tubes. In the case where the membrane fraction of anterior lobes of rat pituitary gland was used, 2 μl of a 0.1 mM compound dissolved in 60% DMSO (dimethylsulfoxide) and 10 μl of 38 nM ^125 I-leuprorelin were added thereto simultaneously. In the case where the membrane fraction of anterior lobes of bovine pituitary gland and the membrane fraction derived from the CHO cells expressing human GnRH receptors were used, 2 μl of a 2 mM compound dissolved in 60% DMSO and 10 μl of 38 nM ^125 I-leuproprelin were added simultaneously. For determining the maximum binding amount, a solution for reaction supplemented with 2 μl of 60% DMSO and 10 μl of 38 nM ^125 I-leuprorelin was prepared. And, for determining the amount of non-specific binding, a solution for reaction supplemented with 2 μl of 100 μM leuprorelin dissolved in 60% DMSO and 10 μl of 38 nM ^125 I-leuprorelin were also prepared simultaneously.
In the cases where membrane fractions of anterior lobes of rat and bovine pituitary were used, reaction was allowed to proceed at 4° C. for 90 minutes, while in the case where the membrane fraction derived from the CHO cells expressing human GnRH receptor was used, reaction was allowed to proceed at 25° C. for 60 minutes. The reaction mixtures were respectively subjected to filtration under sucking with Whatman glass filter (GF-F) processed with polyethyleneimine. After completing the filtration, radioactivity of the ^125 I-leuprorelin remaining on the filter paper was measured with a γ-counter.
By calculation of (TB-SB)/(TB-NSB)×100 (SB: radioactivity obtained when a compound was added, TB: radioactivity for the maximum binding, NSB: radioactivity for the non-specific binding), the binding inhibitory rate of each test compound was determined. Besides, the inhibitory rates were determined by changing the concentrations of test compounds, and the concentration of a test compound inhibiting the specific binding by 50% (IC50 value) was calculated by way of Hill plot.

| SMILES | IC50 |
| --- | --- |
| O=C1C2=C(CCC2)C(=O)N1CC(=O)N1c2ccccc2N(Cc2ccccc2)C(=O)[C@H]2CCC[C@H]21 (relative stereo) [compound 176] | 2 µM |
| Cc1ccc2c(c1)C(=O)N(CC(=O)N1c3ccccc3N(Cc3ccccc3)C(=O)[C@H]3CCC[C@H]31)C2=O (relative stereo) [compound 71] | 9 µM |
| O=C1c2ccccc2C(=O)N1CC(=O)N1c2ccccc2N(CCc2ccccc2)C(=O)[C@H]2CCC[C@H]21 (relative stereo) [compound 217] | 0.7 µM |
| O=C1[C@H]2CCC[C@H]2N(C(=O)CNCc2ccccc2)c2ccccc2N1Cc1ccccc1 (relative stereo) [compound 138] | 14 µM |
| O=C1c2ccccc2C(=O)N1CCCC(=O)N1c2ccccc2N(Cc2ccccc2)C(=O)[C@H]2CCC[C@H]21 (relative stereo) [compound 51] | 12 µM |
| O=C1c2ccccc2C(=O)N1CC(=O)N1c2ccccc2N(Cc2ccc(-c3ccccc3)cc2)C(=O)[C@H]2CCC[C@H]21 (relative stereo) [compound 182] | 2 µM |
| O=C1c2cccc([N+](=O)[O-])c2C(=O)N1CC(=O)N1c2ccccc2N(Cc2ccccc2)C(=O)[C@H]2CCC[C@H]21 (relative stereo) [compound 72] | 6 µM |
| CC(=O)N(CC(=O)N1c2ccccc2N(Cc2ccccc2)C(=O)[C@H]2CCC[C@H]21)C(=O)c1ccccc1 (relative stereo) [compound 109] | 6 µM |
| COc1cccc(CN2C(=O)C3CCCC3N(C(=O)CN3C(=O)c4ccccc4C3=O)c3ccccc32)c1 (stereo not shown) [compound 111] | 4 µM |
| O=C1c2ccccc2C(=O)N1CC(=O)N1c2ccccc2N(Cc2ccc(O)cc2)C(=O)[C@H]2CCC[C@H]21 (relative stereo) [compound 214] | 1 µM |
| O=C1c2ccc(Cl)cc2C(=O)N1CC(=O)N1c2ccccc2N(Cc2ccccc2)C(=O)[C@H]2CCC[C@H]21 (relative stereo) [compound 69] | 2 µM |
| Nc1cccc2c1C(=O)N(CC(=O)N1c3ccccc3N(Cc3ccccc3)C(=O)[C@H]3CCC[C@H]31)C2=O (relative stereo) [compound 106] | 5 µM |
| O=C1CC(/C=C/c2ccccc2)Nc2ccccc2N1Cc1ccccc1 (stereo not shown) [compound 36] | 2 µM |
| COC(=O)c1ccc2c(c1)C(=O)N(CC(=O)N1c3ccccc3N(Cc3ccccc3)C(=O)[C@H]3CCC[C@H]31)C2=O (relative stereo) [compound 108] | 8 µM |
| N#Cc1ccc(CN2C(=O)[C@H]3CCC[C@H]3N(C(=O)CN3C(=O)c4ccccc4C3=O)c3ccccc32)cc1 (relative stereo) [compound 210] | 0.4 µM |
| O=C1C2CCCCC2C(=O)N1CC(=O)N1c2ccccc2N(Cc2ccccc2)C(=O)[C@H]2CCC[C@H]21 (stereo partly shown) [compound 175] | 1 µM |
| O=C1Cc2ccccc2C(=O)N1CC(=O)N1c2ccccc2N(Cc2ccccc2)C(=O)[C@H]2CCC[C@H]21 (relative stereo) [compound 77] | 5 µM |
| O=C1[C@H]2CC=CC[C@H]2C(=O)N1CC(=O)N1c2ccccc2N(Cc2ccccc2)C(=O)[C@H]2CCC[C@H]21 (relative stereo) [compound 80] | 9 µM |
| O=C1c2ccccc2C(=O)N1CC(=O)N1c2ccccc2N(Cc2ccc(Cl)cc2)C(=O)[C@H]2CCC[C@H]21 (relative stereo) [compound 169] | 2 µM |
| O=C1Cc2ccccc2N1CC(=O)N1c2ccccc2N(Cc2ccccc2)C(=O)[C@H]2CCC[C@H]21 (relative stereo) [compound 136] | 15 µM |

| SMILES | IC50 |
| --- | --- |
| O=C1c2ccccc2C(=O)N1CC(=O)N1c2ccccc2N(Cc2ccncc2)C(=O)[C@H]2CCC[C@H]21 (relative stereo) [compound 120] | 4 µM |
| O=C1c2ccccc2C(=O)N1CC(=O)N1c2ccccc2N(Cc2cccc(O)c2)C(=O)[C@H]2CCC[C@H]21 (relative stereo) [compound 215] | 2 µM |
| O=C1c2ccccc2C(=O)N1CC(=O)N1c2ccccc2N(Cc2ccccc2)C(=O)[C@H]2CCCC[C@H]21 (relative stereo) [compound 168] | 3 µM |
| O=C1c2ccccc2C(=O)N1CC(=O)N1c2ccccc2N(Cc2ccc(F)cc2)C(=O)[C@H]2CCC[C@H]21 (relative stereo) [compound 191] | 2 µM |
| O=C1[C@H]2CCC[C@H]2N(C(=O)CN2C(=O)c3ccccc3C2O)c2ccccc2N1Cc1ccccc1 (stereo partly shown) [compound 65] | 14 µM |
| O=C1c2cccc3cccc(c23)C(=O)N1CC(=O)N1c2ccccc2N(Cc2ccccc2)C(=O)[C@H]2CCC[C@H]21 (relative stereo) [compound 75] | 3 µM |
| O=C1C2=C(CCCC2)C(=O)N1CC(=O)N1c2ccccc2N(Cc2ccccc2)C(=O)C2CCCC21 (stereo not shown) [compound 76] | 1 µM |
| CN(CC(=O)N1c2ccccc2N(Cc2ccccc2)C(=O)[C@H]2CCC[C@H]21)Cc1ccccc1 (relative stereo) [compound 139] | 11 µM |
| O=C1c2ccccc2C(=O)N1CC(=O)N1c2ccccc2N(Cc2cccnc2)C(=O)[C@H]2CCC[C@H]21 (relative stereo) [compound 119] | 10 µM |
| COc1ccc(CN2C(=O)C3CCCC3N(C(=O)CN3C(=O)c4ccccc4C3=O)c3ccccc32)cc1 (stereo not shown) [compound 112] | 2 µM |
| O=C1c2ccccc2C(=O)N1CC(=O)N1c2ccccc2N(Cc2ccccc2F)C(=O)[C@H]2CCC[C@H]21 (relative stereo) [compound 194] | 3 µM |
| O=C1c2cccc(O)c2C(=O)N1CC(=O)N1c2ccccc2N(Cc2ccccc2)C(=O)[C@H]2CCC[C@H]21 (relative stereo) [compound 73] | 9 µM |
| O=C(c1ccccc1)N(CC(=O)N1c2ccccc2N(Cc2ccccc2)C(=O)[C@H]2CCC[C@H]21)Cc1ccccc1 (relative stereo) [compound 141] | 14 µM |
| O=C1c2ccccc2C(=O)N1CC(=O)N1c2ccccc2N(c2ccccc2)C(=O)C2CCCC21 (stereo not shown) [compound 121] | 11 µM |
| O=C1C2=C(CCCC2)C(=O)N1CC(=O)N1c2ccccc2N(Cc2ccc3ccccc3c2)C(=O)[C@H]2CCC[C@H]21 (relative stereo) [compound 171] | 0.3 µM |
| CSc1ccc(CN2C(=O)[C@H]3CCC[C@H]3N(C(=O)CN3C(=O)c4ccccc4C3=O)c3ccccc32)cc1 (relative stereo) [compound 212] | 1 µM |
| O=C1c2ccc([N+](=O)[O-])cc2C(=O)N1CC(=O)N1c2ccccc2N(Cc2ccccc2)C(=O)[C@H]2CCC[C@H]21 (relative stereo) [compound 49] | 2 µM |
| COc1cc(OC)cc(C(=O)NCC(=O)N2c3ccccc3N(Cc3ccccc3)C(=O)[C@H]3CCC[C@H]32)c1 (relative stereo) [compound 87] | 16 µM |
| O=C1c2ccccc2C(=O)N1CCC(=O)N1c2ccccc2N(Cc2ccccc2)C(=O)[C@H]2CCC[C@H]21 (relative stereo) [compound 50] | 24 µM |
| O=C1c2ccncc2C(=O)N1CC(=O)N1c2ccccc2N(Cc2ccccc2)C(=O)[C@H]2CCC[C@H]21 (relative stereo) [compound 128] | 15 µM |
